These results are taken from patent US8865220B2, “Method for controlled release of parathyroid hormone from encapsulated poly(lactic-glycolic)acid microspheres” (Kaohsiung Medical University, priority 2010, dated 2014).

Values joined by “and” are separate entries in the source; they are usually repeats but may differ in a detail not shown here. Identical values can stand only once. Like-named read-outs stand apart in the source and are kept apart here.

The conditions of series [1]: pulmonary route, cited from earlier work.
Series [2] relates to papain-induced osteoarthritis, articular cartilage. Nature of the series: Papain-induced osteoarthritis, histology and immunohistochemistry of articular cartilage. Format: in vivo, rat. The protocol:
The animal experiments were approved by the Animal Care and Use Committee of Kaohsiung Medical University. Fifty-four 12-week-old male Sprague-Dawley rats (250-300 gm) were purchased from BioLASCO Taiwan and housed under standard laboratory conditions (temperature 24° C., 12-hour light-dark cycle) with food and water ad libitum. The animals were acclimatized to the laboratory environment for 1 week before the experiments.
Each left knee, which served as the contralateral control joint, received the vehicle without PTH treatment or OA-induction. The right knees were the study joints. Rats were divided into five groups: Non-OA+PTH [PTH(1-34) treatment without OA-induction] (n=6), Non-OA+PTH/PLGA [PTH/PLGA microspheres treatment without OA-induction] (n=6), OA [OA-induction without PTH(1-34) treatment] (n=6), OA+PTH [PTH(1-34) treatment followed by OA-induction] (n=6), and OA+PTH/PLGA [PTH/PLGA microspheres treatment followed by OA-induction] (n=6). OA was induced in the right knees of rats in the OA and OA+PTH groups with intra-articular injections of 20 μl of 4% papain solution and 20 μl of 0.03 M cystein. The injections were given with a 26-gauge needle via the patellar tendon on days 1, 4, and 7 of the experiment (13). In the OA+PTH group, after OA-induction, the right knees were injected intra-articularly with 40 μl of 10 nM PTH(1-34) every three days until sacrifice. In the PTH group, the same PTH(1-34) treatment was performed but without OA-induction. In the OA+PTH/PLGA group, after OA-induction, the right knees were injected intra-articularly with 0.4 mg of PTH/PLGA microspheres at 1st and 15th day. The rats were sacrificed with an overdose of CO2-inhaled at the same time point at 5 weeks.
After sacrifice, the knees of each rat were harvested, and the tibia plateaus with articular cartilage were collected and fixed with 10% neutral buffered formalin prior to histological preparation. The samples were then decalcified in 10% formic acid/PBS. The decalcified tibia articular samples were paraffin embedded, and 5 μm microsections in the coronary plane were prepared. GAG was stained with Safranin-O-Fast-Green (1% Safranin-O counter-stained with 0.75% hematoxylin and then 1% fast green) (Sigma, St. Louis, Mo.). Localized type II Collagen and type X collagen were immuno-stained.
GAG was stained red by Safarinin-O, and the total and red-stained areas in the articular cartilage of each proximal tibia were measured using the Image-Pro plus 5.0 software (FIG. 6C) (Media Cybernetics Inc. MD, USA). The ratio of red stained area to total area (red/total) in each group was calculated.
The tibia articular sections were re-hydrated, and the endogenous peroxidase in tissues was blocked with 3% hydrogen peroxide. Samples were digested by enzymes for epitope retrieval before incubation with primary antibodies. The method for enzyme digestion was modified from a previous report (20). The optimal condition for the enzyme digestion for type II collagen immuno-staining was a mixture of 2.5% hyluronidase and 1 mg/ml pronase in PBS (pH 7.4) (Sigma, St. Louis, Mo.) at 37° C. for 1 hour. For type X collagen immuno-staining the optimal condition was 0.1 U/ml chondroitinase ABC (Sigma, St. Louis, Mo.) for 1 hour and pepsin 1 mg/ml in tris-HCl (pH 3.0) at 37° C. for 15 minutes. […]

The next series concerns MC3T3-E1 cells. Put plainly: Bioactivity of released PTH(1-34): intracellular cAMP. The series is classed as cell-based. The conditions noted are these: PTH(1-34) released from microspheres at 1 and 3 days; 6 hrs incubation. On the procedure:
Activity of controlled released PTH(1-34) was determined by measuring cAMP contents in cells treated with released PTH(1-34). For these experiments, the MC3T3-E1 was cultured in α-MEM supplemented with 10% fetal bovine serum and […] ascorbic acid. The cells were seeded onto 24-well plates at a density of 50,000 cells/well. After 6 hrs of incubation with released PTH (1-34) from microspheres, the cells were lysed directly in the medium by adding 0.1 N HCl and 0.5 mM isobutylmethylxanthine to protect the produced cAMP. Intracellular cAMP was measured using a commercially available ELISA kit (Endogen/Pierce, Rockford, Ill.) following the manufacturer's instructions.

For series [3], the system named is papain induced osteoarthritis. The conditions noted are these: injection once in three days for 5 weeks; cited from earlier work.
For series [4] the following is noted: oral administration, in comparison to subcutaneous administration; cited from earlier work.
The mark [5] stands for this setting: Non-OA study joints (no OA-induction).
Setting [6] is: OA-induced study joints, intra-articular, 5 weeks.

Consider `CC[C@H](C)[C@H](NC(=O)[C@H](CCC(=O)O)NC(=O)[C@H](CO)NC(=O)[C@@H](NC(=O)[C@@H](N)CO)C(C)C)C(=O)N[C@@H](CCC(N)=O)C(=O)N[C@@H](CC(C)C)C(=O)N[C@@H](CCSC)C(=O)N[C@@H](Cc1cnc[nH]1)C(=O)N[C@@H](CC(N)=O)C(=O)N[C@@H](CC(C)C)C(=O)NCC(=O)N[C@@H](CCCCN)C(=O)N[C@@H](Cc1cnc[nH]1)C(=O)N[C@@H](CC(C)C)C(=O)N[C@@H](CC(N)=O)C(=O)N[C@@H](CO)C(=O)N[C@@H](CCSC)C(=O)N[C@@H](CCC(=O)O)C(=O)N[C@@H](CCCN=C(N)N)C(=O)N[C@H](C(=O)N[C@@H](CCC(=O)O)C(=O)N[C@@H](Cc1c[nH]c2ccccc12)C(=O)N[C@@H](CC(C)C)C(=O)N[C@@H](CCCN=C(N)N)C(=O)N[C@@H](CCCCN)C(=O)N[C@@H](CCCCN)C(=O)N[C@@H](CC(C)C)C(=O)N[C@@H](CCC(N)=O)C(=O)N[C@@H](CC(=O)O)C(=O)N[C@H](C(=O)N[C@@H](Cc1cnc[nH]1)C(=O)N[C@@H](CC(N)=O)C(=O)N[C@@H](Cc1ccccc1)C(=O)O)C(C)C)C(C)C` [PTH(1-34)], for which the bioavailability (in general, the share of a dose that reaches the circulation, judged against a reference dose that is usually intravenous) in series [1] (inhalation of dry powders) is 34%; in series [1] (intratracheal instillation), 40%; in series [4] it was 5% and 2.1%. Further, the results for the “Safranin O-stained area to total area (red:total, GAG) vs contralateral control” value in series [2] (setting [5]) and in series [2] (setting [6]) were “not significantly different” and “not significantly different from the contralateral control cartilage”, respectively. For the same compound, in series [2] (setting [5]), the “type II collagen stained area to total area vs contralateral control” value is given as “not significantly different”. Moreover, the “type X collagen-stained chondrocytes vs OA group” value in series [2] (OA-induced study joints, after 5 weeks of treatment) is listed as “less positive stained cells”. The “type II collagen stained area to total area (brown:total) vs contralateral control” value in series [2] (setting [6]) is listed as “not significantly different from the contralateral control cartilage”. Also, the cAMP production result with MC3T3-E1 cells was “increased production of cAMP”. In series [3], the effective dose is recorded as 10^−8 M.
